Structures can show the parent of a compound that is named as a salt. Where two headings read alike, the source gives them in different places. Each block holds one molecule with its values, some of them ahead of it.
How the values were obtained:
[1] = tested on: Nrf2 transcriptional activity (pARE-Luc reporter) in HepG2 cells; experiment: In vitro Nrf2 transcriptional activity measurement by ARE-dependent reporter assay in HepG2 cell; type: cell-based, human
Summary of the method: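 Luminescence readout (Bright-Glo) after 4 h, 37° C compound exposure of HepG2 cells carrying the ARE-luciferase vector pGL4.37. Each well converted to % response versus reference compound at 3.75 μM, and EC50 derived from dose-response curves.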

[2] = tested on: Nqo1 (NAD(P)H quinone dehydrogenase 1) mRNA, Nrf2 downstream molecule; experiment: In vivo Nrf2 transcriptional activity measurement (Nqo1 mRNA in organs by qPCR); details: Mus musculus, C57BL/6J mice, 7 to 8 hours; for fold induction at 10 mg/kg: ip, Intraperitoneal; for fold induction at 30 mg/kg: Oral
Protocol: Test Example 2: In Vivo Nrf2 Transcriptional Activity Measurement
A test compound (solvent: 10 vol % dimethyl sulfoxide/50 mM glycine/32 mM sodium hydroxide/physiological saline) was administered to C57BL/6J mice (7-8 weeks old), which were euthanized by whole blood collection under isoflurane anesthesia 7 to 8 hours later, followed by the collection of various organs. mRNA was purified from the collected organs, and the mRNA expression level of Mapk1 as an internal control and the mRNA expression level of Nqo1 (NAD(P)H quinone dehydrogenase 1) as a typical Nrf2 downstream molecule were each measured by qPCR. The Nqo1 mRNA expression level was quantified by comparative CT, and an expression level ratio to a non-administration group was calculated. The administration of the test compound elevated the Nqo1 mRNA expression level in the various organs, confirming that the test compound also has a Nrf2-activating effect in vivo.

[3] = Homo sapiens, HepG2 cells transfected with pARE-Luc, 4 hours at 37° C., luciferase activity of Example 1-54 or Example 17-23 at 3.75 μM defined as 100%
[4] = kidney, read-out: Nqo1 mRNA expression level ratio to non-administration group, Kidney
[5] = liver, read-out: Nqo1 mRNA expression level ratio to non-administration group, Liver
[6] = lung, read-out: Nqo1 mRNA expression level ratio to non-administration group, Lung

SMILES: CO[C@@H]1CN(c2cc(Cl)c(C(=O)N3COc4c(cccc4-c4cc(N5C6CCC5COC6)c(C(=O)O)cc4F)C3)c(Cl)c2)[C@@H]1C [Compound 1-4, 4-[3-[2,6-Dichloro-4-[(2R,3R)-3-methoxy-2-methylazetidin-1-yl]benzoyl]-2,4-dihydro-1,3-benzoxazin-8-yl]-5-fluoro-2-(3-oxa-8-azabicyclo[3.2.1]octan-8-yl)benzoic acid]
- EC50 [1, 3]: 0.0016 µM
- fold induction at 10 mg/kg [2, 4]: 4.4
- fold induction at 10 mg/kg [2, 5]: 6.5
- fold induction at 10 mg/kg [2, 6]: 13
- fold induction at 30 mg/kg [2, 4]: 5
- fold induction at 30 mg/kg [2, 5]: 8.1
- fold induction at 30 mg/kg [2, 6]: 20

SMILES: O=C(O)c1cc(F)c(-c2cccc3c2OCN(C(=O)c2c(Cl)cc(N4CC5(CCOCC5)C4)cc2Cl)C3)cc1N1C2CCC1COC2 [Compound 1-18, 4-[3-[2,6-Dichloro-4-(7-oxa-2-azaspiro[3.5]nonan-2-yl)benzoyl]-2,4-dihydro-1,3-benzoxazin-8-yl]-5-fluoro-2-(3-oxa-8-azabicyclo[3.2.1]octan-8-yl)benzoic acid]
- EC50 [1, 3]: 0.0043 µM
- fold induction at 10 mg/kg [2, 4]: 2.5
- fold induction at 10 mg/kg [2, 5]: 6
- fold induction at 10 mg/kg [2, 6]: 8.7

SMILES: O=C(O)c1cc(F)c(-c2cccc3c2OCN(C(=O)c2c(Cl)cc(N4CC5(CC(OC(F)F)C5)C4)cc2Cl)C3)cc1N1C2CCC1COC2 [Compound 1-21, 4-[3-[2,6-Dichloro-4-[6-(difluoromethoxy)-2-azaspiro[3.3]heptan-2-yl]benzoyl]-2,4-dihydro-1,3-benzoxazin-8-yl]-5-fluoro-2-(3-oxa-8-azabicyclo[3.2.1]octan-8-yl)benzoic acid]
- EC50 [1, 3]: 0.0029 µM
- fold induction at 10 mg/kg [2, 4]: 3.7
- fold induction at 10 mg/kg [2, 5]: 4.7
- fold induction at 10 mg/kg [2, 6]: 10

SMILES: C[C@@H]1CN(C)CCN1c1cc(Cl)c(C(=O)N2COc3c(cccc3-c3cc(N4C5CCC4COC5)c(C(=O)O)cc3F)C2)c(Cl)c1 [Compound 1-33, 4-[3-[2,6-Dichloro-4-[(2R)-2,4-dimethylpiperazin-1-yl]benzoyl]-2,4-dihydro-1,3-benzoxazin-8-yl]-5-fluoro-2-(3-oxa-8-azabicyclo[3.2.1]octan-8-yl)benzoic acid]
- EC50 ([1]; HepG2 cells, pARE-Luc reporter, 4 hours, 100% = Example 1-54 or Example 17-23 at 3.75 μM (repeat print of Table 20-1)): 0.0019 µM
- fold induction at 10 mg/kg [2, 4]: 3.7
- fold induction at 10 mg/kg [2, 5]: 5.5
- fold induction at 10 mg/kg [2, 6]: 13
- fold induction at 30 mg/kg [2, 4]: 5.1
- fold induction at 30 mg/kg [2, 5]: 5.2
- fold induction at 30 mg/kg [2, 6]: 18

- EC50 [1, 3]: 0.0015 µM
SMILES: COCCN1CCN(c2cc(Cl)c(C(=O)N3COc4c(cccc4-c4cc(N5CCOCC5)c(C(=O)O)cc4F)C3)c(Cl)c2)CC1 [Compound 1-54, 4-[3-[2,6-Dichloro-4-[4-(2-methoxyethyl)piperazin-1-yl]benzoyl]-2,4-dihydro-1,3-benzoxazin-8-yl]-5-fluoro-2-morpholin-4-ylbenzoic acid]
- fold induction at 10 mg/kg [2, 4]: 4.6
- fold induction at 10 mg/kg [2, 5]: 6.7
- fold induction at 10 mg/kg [2, 6]: 18
- fold induction at 30 mg/kg [2, 4]: 4.9
- fold induction at 30 mg/kg [2, 5]: 7.4
- fold induction at 30 mg/kg [2, 6]: 20

SMILES: COC[C@@H]1CN(C)CCN1c1cc(Cl)c(C(=O)N2COc3c(cccc3-c3cc(N4C5CCC4COC5)c(C(=O)O)cc3F)C2)c(Cl)c1 [Compound 19-19, 4-[3-[2,6-Dichloro-4-[(2S)-2-(methoxymethyl)-4-methylpiperazin-1-yl]benzoyl]-2,4-dihydro-1,3-benzoxazin-8-yl]-5-fluoro-2-(3-oxa-8-azabicyclo[3.2.1]octan-8-yl)benzoic acid]
- EC50 [1, 3]: 0.0026 µM

SMILES: Cn1cc(-c2cc(Cl)c(C(=O)N3COc4c(cccc4-c4cc(N5C6COCC5C6)c(C(=O)O)cc4F)C3)c(Cl)c2)cn1 [Compound 20-1, 4-[3-[2,6-Dichloro-4-(1-methylpyrazol-4-yl)benzoyl]-2,4-dihydro-1,3-benzoxazin-8-yl]-5-fluoro-2-(3-oxa-6-azabicyclo[3.1.1]heptan-6-yl)benzoic acid N,N-diethylethanamine salt]
- EC50 [1, 3]: 0.85 µM

SMILES: CN1C[C@H]2CC[C@@H]1CN2c1cc(Cl)c(C(=O)N2COc3c(cccc3-c3cc(N4C5CCC4COC5)c(C(=O)O)cc3F)C2)c(Cl)c1 [Compound 20-2, 4-[3-[2,6-Dichloro-4-[(1R,4R)-5-methyl-2,5-diazabicyclo[2.2.2]octan-2-yl]benzoyl]-2,4-dihydro-1,3-benzoxazin-8-yl]-5-fluoro-2-(3-oxa-8-azabicyclo[3.2.1]octan-8-yl)benzoic acid]
- EC50 [1, 3]: 0.024 µM

SMILES: CN1C[C@@H]2CC[C@H]1CN2c1cc(Cl)c(C(=O)N2COc3c(cccc3-c3cc(N4C5CCC4COC5)c(C(=O)O)cc3F)C2)c(Cl)c1 [Compound 20-3, 4-[3-[2,6-Dichloro-4-[(1S,4S)-5-methyl-2,5-diazabicyclo[2.2.2]octan-2-yl]benzoyl]-2,4-dihydro-1,3-benzoxazin-8-yl]-5-fluoro-2-(3-oxa-8-azabicyclo[3.2.1]octan-8-yl)benzoic acid]
- EC50 [1, 3]: 0.04 µM

SMILES: CN1C2CC1CN(c1cc(Cl)c(C(=O)N3COc4c(cccc4-c4cc(N5C6CCC5COC6)c(C(=O)O)cc4F)C3)c(Cl)c1)C2 [Compound 20-4, 4-[3-[2,6-Dichloro-4-(6-methyl-3,6-diazabicyclo[3.1.1]heptan-3-yl)benzoyl]-2,4-dihydro-1,3-benzoxazin-8-yl]-5-fluoro-2-(3-oxa-8-azabicyclo[3.2.1]octan-8-yl)benzoic acid]
- EC50 [1, 3]: 0.15 µM

SMILES: O=C(O)c1cc(F)c(-c2cccc3c2OCN(C(=O)c2c(Cl)cc(N4CC5CC(C4)N5C4COC4)cc2Cl)C3)cc1N1C2CCC1COC2 [Compound 20-5, 4-[3-[2,6-Dichloro-4-[6-(oxetan-3-yl)-3,6-diazabicyclo[3.1.1]heptan-3-yl]benzoyl]-2,4-dihydro-1,3-benzoxazin-8-yl]-5-fluoro-2-(3-oxa-8-azabicyclo[3.2.1]octan-8-yl)benzoic acid]
- EC50 [1, 3]: 0.075 µM

SMILES: O=C(O)c1cc(F)c(-c2cccc3c2OCN(C(=O)c2c(Cl)cc(N4C5CC4CN(C4COC4)C5)cc2Cl)C3)cc1N1C2CCC1COC2 [Compound 20-6, 4-[3-[2,6-Dichloro-4-[3-(oxetan-3-yl)-3,6-diazabicyclo[3.1.1]heptan-6-yl]benzoyl]-2,4-dihydro-1,3-benzoxazin-8-yl]-5-fluoro-2-(3-oxa-8-azabicyclo[3.2.1]octan-8-yl)benzoic acid]
- EC50 [1, 3]: 0.048 µM

SMILES: COCCN1C[C@@H]2C[C@H]1CN2c1cc(Cl)c(C(=O)N2COc3c(cccc3-c3cc(N4C5CCC4COC5)c(C(=O)O)cc3F)C2)c(Cl)c1 [Compound 20-7, 4-[3-[2,6-Dichloro-4-[(1S,4S)-5-(2-methoxyethyl)-2,5-diazabicyclo[2.2.1]heptan-2-yl]benzoyl]-2,4-dihydro-1,3-benzoxazin-8-yl]-5-fluoro-2-(3-oxa-8-azabicyclo[3.2.1]octan-8-yl)benzoic acid]
- EC50 [1, 3]: 0.014 µM

SMILES: O=C(O)c1cc(F)c(-c2cccc3c2OCN(C(=O)c2c(Cl)cc(N4CCNCC4)cc2Cl)C3)cc1N1C2CCC1COC2 [Compound 20-8, 4-[3-(2,6-Dichloro-4-piperazin-1-ylbenzoyl)-2,4-dihydro-1,3-benzoxazin-8-yl]-5-fluoro-2-(3-oxa-8-azabicyclo[3.2.1]octan-8-yl)benzoic acid]
- EC50 [1, 3]: 0.018 µM

SMILES: CN1CCN(c2cc(Cl)c(C(=O)N3COc4c(cccc4-c4cc(N5C6CCC5COC6)c(C(=O)O)cc4F)C3)c(Cl)c2)CC12CC2 [Compound 20-9, 4-[3-[2,6-Dichloro-4-(4-methyl-4,7-diazaspiro[2.5]octan-7-yl)benzoyl]-2,4-dihydro-1,3-benzoxazin-8-yl]-5-fluoro-2-(3-oxa-8-azabicyclo[3.2.1]octan-8-yl)benzoic acid]
- EC50 [1, 3]: 0.014 µM

SMILES: Cc1cnn(C2CN(c3cc(Cl)c(C(=O)N4COc5c(cccc5-c5cc(N6C7CCC6COC7)c(C(=O)O)cc5F)C4)c(Cl)c3)C2)c1 [Compound 20-13, 4-[3-[2,6-Dichloro-4-[3-(4-methylpyrazol-1-yl)azetidin-1-yl]benzoyl]-2,4-dihydro-1,3-benzoxazin-8-yl]-5-fluoro-2-(3-oxa-8-azabicyclo[3.2.1]octan-8-yl)benzoic acid]
- EC50 [1, 3]: 0.0055 µM

Source: patent US20250171457A1, “NITROGEN-CONTAINING HETEROCYCLIC COMPOUND HAVING NRF2 ACTIVATION EFFECT” (CHUGAI SEIYAKU KABUSHIKI KAISHA, priority 2022, published 2025)
